Assay results: patent US11180657B2, “Polysulfonated fluorescence dyes” (ATTO-TEC GmbH, priority 2017, dated 2021)
Marks after values point to notes of the source that are not given here.

Columns and labels:
[1] = Fluorescence maximum of the dye; type: physicochemical
Text: (§1) Examples of the compounds according to the invention are listed in Tables 2-6, where the structures as well as the absorption and fluorescence maxima are indicated. The spectra of selected compounds are shown FIGS. 5-18.

[2] = Absorption maximum of the dye; type: physicochemical
Text: as §1

| λfl ([1]; solvent PBS pH 7.4) | λabs ([2]; solvent water/acetonitrile 1:1) | λabs ([2]; solvent PBS pH 7.4) | λfl ([1]; solvent ethanol) [nm] | λabs ([2]; solvent ethanol) [nm] | SMILES |
| --- | --- | --- | --- | --- | --- |
| 555^b nm | 534^c nm |  |  |  | CN(CCCC(=O)O)C(=O)c1ccccc1-c1c2cc/c(=N/Cc3ccc(S(=O)(=O)O)cc3S(=O)(=O)O)cc-2oc2cc(NCc3ccc(S(=O)(=O)O)cc3S(=O)(=O)O)ccc12 [Compound 13] |
| 551^b nm | 530^c nm |  |  |  | O=C(O)c1ccccc1-c1c2cc/c(=N/CCc3ccc(S(=O)(=O)O)cc3)cc-2oc2cc(NCCc3ccc(S(=O)(=O)O)cc3)ccc12 [Compound 18] |
| 559^b nm | 538^c nm |  |  |  | CN(CCCC(=O)O)C(=O)c1ccccc1-c1c2cc/c(=N/CCc3ccc(S(=O)(=O)O)cc3)cc-2oc2cc(NCCc3ccc(S(=O)(=O)O)cc3)ccc12 [Compound 21] |
| 558^b nm | 536^c nm |  |  |  | CN(CCCC(=O)O)C(=O)c1ccccc1-c1c2cc(S(=O)(=O)O)/c(=N/CCc3ccc(S(=O)(=O)O)cc3)cc-2oc2cc(NCCc3ccc(S(=O)(=O)O)cc3)ccc12 [Compound 22] |
| 559^b nm | 532^c nm |  |  |  | O=C(O)c1ccccc1-c1c2cc/c(=N/CCc3ccc(S(=O)(=O)O)cc3S(=O)(=O)O)cc-2oc2cc(NCCc3ccc(S(=O)(=O)O)cc3S(=O)(=O)O)ccc12 [Compound 23] |
| 561^b nm | 539^c nm |  |  |  | CN(CCCC(=O)O)C(=O)c1ccccc1-c1c2cc/c(=N/CCc3ccc(S(=O)(=O)O)cc3S(=O)(=O)O)cc-2oc2cc(NCCc3ccc(S(=O)(=O)O)cc3S(=O)(=O)O)ccc12 [Compound 24] |
| 677^b nm |  | 656^b nm |  |  | CC1(C)c2c(cc3c4c2CCCN4CCC3)C(c2c(F)c(F)c(SCC(=O)O)c(F)c2F)=c2cc3c(cc21)=[N+](Cc1ccc(S(=O)(=O)O)cc1S(=O)(=O)O)CCC3 [Compound 36] |
| 661^b nm |  | 642^b nm |  |  | CN(C)c1ccc2c(c1)C(C)(C)C1=C/C(=[N+](/C)Cc3ccc(S(=O)(=O)O)cc3S(=O)(=O)O)C=CC1=C2c1c(F)c(F)c(F)c(F)c1F [Compound 37] |
| 667^b nm |  | 646^b nm |  |  | CN(C)c1ccc2c(c1)C(C)(C)c1cc3c(cc1=C2c1c(F)c(F)c(SCC(=O)O)c(F)c1F)CCC[N+]=3Cc1ccc(S(=O)(=O)O)cc1S(=O)(=O)O [Compound 38] |
| 693^b nm |  | 673^b nm |  |  | CN(C)c1ccc2c(c1)C(C)(C)c1cc3c(cc1=C2c1c(F)c(F)c(SCC(=O)O)c(F)c1F)C(CS(=O)(=O)O)CC(C)(C)[N+]=3Cc1ccc(S(=O)(=O)O)cc1S(=O)(=O)O (centres unmarked) [Compound 39] |
| 720^b nm |  | 699^b nm |  |  | CC1(C)c2cc3c(cc2C(c2c(F)c(F)c(SCC(=O)O)c(F)c2F)=c2cc4c(cc21)=[N+](Cc1ccc(S(=O)(=O)O)cc1S(=O)(=O)O)C(C)(C)CC4CS(=O)(=O)O)C(CS(=O)(=O)O)=CC(C)(C)N3Cc1ccc(S(=O)(=O)O)cc1S(=O)(=O)O (centres unmarked) [Compound 40] |
| 659 nm |  | 640 nm | 663 | 642 | CN(CCCC(=O)O)C(=O)c1ccccc1C1=c2cc3c(cc2C(C)(C)c2c1cc1c4c2CCCN4CCC1)=[N+](Cc1ccc(S(=O)(=O)O)cc1S(=O)(=O)O)CCC3 [Compound 41] |
| 701^b nm |  | 682^b nm |  |  | CC[N+]1=c2cc3c(cc2C(CS(=O)(=O)O)=CC1(C)C)=C(c1c(F)c(F)c(SCCS(=O)(=O)O)c(F)c1F)c1cc2c(cc1C3(C)C)N(Cc1ccc(S(=O)(=O)O)cc1S(=O)(=O)O)CCC2 [Compound 42] |
| 704^b nm |  | 684^b nm |  |  | CC[N+]1=c2cc3c(cc2C(CS(=O)(=O)O)=CC1(C)C)=C(c1c(F)c(F)c(SCC(=O)O)c(F)c1F)c1cc2c(cc1C3(C)C)N(Cc1ccc(S(=O)(=O)O)cc1S(=O)(=O)O)CCC2 [Compound 43] |
| 707^b nm |  | 687^b nm |  |  | CC1(C)C=C(CS(=O)(=O)O)c2cc3c(cc2N1)C(C)(C)c1cc2c(cc1=C3c1c(F)c(F)c(SCC(=O)O)c(F)c1F)C(CS(=O)(=O)O)=CC(C)(C)[N+]=2Cc1ccc(S(=O)(=O)O)cc1 [Compound 44] |
| 719^b nm |  | 698^b nm |  |  | CC1(C)c2cc3c(cc2C(c2c(F)c(F)c(SCCS(=O)(=O)O)c(F)c2F)=c2cc4c(cc21)=[N+](CCc1ccc(S(=O)(=O)O)cc1)C(C)(C)C=C4CS(=O)(=O)O)C(CS(=O)(=O)O)=CC(C)(C)N3CCCC(=O)O [Compound 45] |
| 666^b nm |  | 646^b nm |  |  | CN(Cc1ccc(S(=O)(=O)O)cc1S(=O)(=O)O)c1ccc2c(c1)C(C)(C)C1=C/C(=[N+](/C)Cc3ccc(S(=O)(=O)O)cc3S(=O)(=O)O)C=CC1=C2c1c(F)c(F)c(F)c(F)c1F [Compound 46] |
| 666^b nm |  | 645^b nm |  |  | CN(Cc1ccc(S(=O)(=O)O)cc1S(=O)(=O)O)c1ccc2c(c1)C(C)(C)C1=C/C(=[N+](/C)Cc3ccc(S(=O)(=O)O)cc3S(=O)(=O)O)C=CC1=C2c1c(F)c(F)c(SCC(=O)O)c(F)c1F [Compound 47] |
| 705^b nm |  | 682^b nm |  |  | CC1(C)c2cc3c(cc2C(c2c(F)c(F)c(SCCS(=O)(=O)O)c(F)c2F)=c2cc4c(cc21)=[N+](Cc1ccc(S(=O)(=O)O)cc1S(=O)(=O)O)C(C)(C)C=C4CS(=O)(=O)O)CCCN3CCCC(=O)O [Compound 48] |
| 698^b nm |  | 673^b nm |  |  | CC1(C)c2cc3c(cc2C(c2c(Cl)cccc2Cl)=c2cc4c(cc21)=[N+](Cc1ccc(S(=O)(=O)O)cc1S(=O)(=O)O)C(C)(C)C=C4CS(=O)(=O)O)CCCN3CCCC(=O)O [Compound 52] |
| 677^b nm |  | 654^b nm |  |  | CC1(C)c2cc3c(cc2C(c2c(Cl)cccc2Cl)=c2cc4c(cc21)=[N+](Cc1ccc(S(=O)(=O)O)cc1S(=O)(=O)O)C(C)(C)CC4CS(=O)(=O)O)CCCN3CCCC(=O)O (centres unmarked) [Compound 53] |
| 749^b nm |  | 725^b nm |  |  | CCN1c2cc3c(cc2C(CS(=O)(=O)O)=CC1(C)C)C(c1n(C)cc[n+]1CCCCS(=O)(=O)O)=c1cc2c(cc1C3(C)C)=[N+](Cc1ccc(S(=O)(=O)O)cc1S(=O)(=O)O)CCC2 [Compound 55] |
| 746^b nm |  | 724^b nm |  |  | CCN1c2cc3c(cc2C(CS(=O)(=O)O)=CC1(C)C)C(c1n(C)cc[n+]1CCCC(=O)O)=c1cc2c(cc1C3(C)C)=[N+](Cc1ccc(S(=O)(=O)O)cc1S(=O)(=O)O)CCC2 [Compound 56] |
| 749^b nm |  | 725^b nm |  |  | Cn1cc[n+](CCCCS(=O)(=O)O)c1C1=c2cc3c(cc2C(C)(C)c2cc4c(cc21)C(CS(=O)(=O)O)=CC(C)(C)N4CCCC(=O)O)=[N+](Cc1ccc(S(=O)(=O)O)cc1S(=O)(=O)O)CCC3 [Compound 57] |
| 775^b nm |  | 742^b nm |  |  | CC1=CC(C)(C)N(Cc2ccc(S(=O)(=O)O)cc2)c2cc3c(cc21)C(c1n(C)cc[n+]1CCCCS(=O)(=O)O)=c1cc2c(cc1C3(C)C)=[N+](CCCC(=O)O)C(C)(C)C=C2C [Compound 58] |
| 771^b nm |  | 739^b nm |  |  | Cn1cc[n+](CCCCS(=O)(=O)O)c1C1=c2cc3c(cc2C(C)(C)c2cc4c(cc21)C(CS(=O)(=O)O)=CC(C)(C)N4CCS(=O)(=O)O)=[N+](CCCC(=O)O)C(C)(C)C=C3CS(=O)(=O)O [Compound 59] |

| SMILES | λfl ([1]; solvent PBS pH 7.4) | λabs ([2]; solvent water/acetonitrile 1:1) | λabs ([2]; solvent PBS pH 7.4) | λfl ([1]; solvent ethanol) [nm] | λabs ([2]; solvent ethanol) [nm] |
| --- | --- | --- | --- | --- | --- |
| CN(Cc1ccc(S(=O)(=O)O)cc1S(=O)(=O)O)c1ccc2c(c1)[Si](C)(C)C1=C/C(=[N+](/C)Cc3ccc(S(=O)(=O)O)cc3S(=O)(=O)O)C=CC1=C2c1c(F)c(F)c(SCC(=O)O)c(F)c1F [Compound 54] | 709^b nm |  | 685^b nm |  |  |
